Measured values from US9556158B2, “Fungicidal 3-[(pyridin-2-ylmethoxyimino)(phenyl)methyl]-2-substituted-1,2,4-oxadiazol-5(2H)-one derivatives” (BAYER INTELLECTUAL PROPERTY GMBH, priority 2011, dated 2017).

How the values were obtained:
Phytophthora infestans [1] = test: whole plant or invertebrate; format: in vivo; conditions: in Solanum lycopersicum, 120 h, read-out: % efficacy
Puccinia recondita = test: Example E: in vivo preventive test on Puccinia recondita (brown rust on wheat); conditions: 500 ppm, preventive spray on wheat plants, contamination after 24 hours, grading 12 days after contamination vs control plants
Procedure: In Vivo Preventive Test on Puccinia recondita (Brown Rust on Wheat)
(§1) The active ingredients tested are prepared by homogenization in a mixture of acetone/tween/DMSO, and then diluted with water to obtain the desired active material concentration.
Wheat plants (“Scipion” variety), sown in starter cups on a 50/50 peat soil-pozzolana substrate and grown at 22° C., are treated at the 1-leaf stage (10 cm height) by spraying with the active ingredient prepared as described above. Plants, used as controls, are treated with the mixture of acetone/tween/DMSO/water not containing the active material.
(§2) After 24 hours, the plants are contaminated by spraying the leaves with an aqueous suspension of Puccinia recondita spores (100 000 spores per ml). The spores are collected from an infected plant and are suspended in water containing 2.5 ml/l of Tween 80 at 10%. The contaminated wheat plants are incubated for 24 hours at 20° C. and at 100% relative humidity, and then for 10 days at 20° C. and at 70-80% relative humidity.
Grading (% of efficacy) is carried out 12 days after the contamination, in comparison with the control plants.
(§3) Under these conditions, good (at least 70%) or total protection is observed at a dose of 500 ppm with the following compounds: […]

Plasmopara viticola = test: Example I: in vivo preventive test on Plasmopara viticola (grapevine); conditions: 144 h, 10 ppm of active ingredient, preventive spray on young plants, evaluated 6 days after inoculation, read-out: Eff. %
Procedure: In Vivo Preventive Test on Plasmopara viticola (Grapevine)
To produce a suitable preparation of active compound, 1 part by weight of active compound is mixed with the stated amounts of solvent and emulsifier, and the concentrate is diluted with water to the desired concentration.
To test for preventive activity, young plants are sprayed with the preparation of active compound at the stated rate of application. After the spray coating has dried on, the plants are inoculated with an aqueous spore suspension of Plasmopara viticola and then remain for 1 day in an incubation cabinet at approximately 20° C. and a relative atmospheric humidity of 100%. The plant is subsequently placed for 4 days in a greenhouse at approximately 21° C. and a relative atmospheric humidity of approximately 90%. The plants are then misted and placed for 1 day in an incubation cabinet.
The test is evaluated 6 days after the inoculation. 0% means an efficacy which corresponds to that of the untreated control, while an efficacy of 100% means that no disease is observed.

[2] = pH 2.7, LogP, HPLC on reversed phase columns, pH 2.7, 0.1% formic acid in water / acetonitrile gradient
Phytophthora infestans [3] = format: in vivo; conditions: 100 ppm of active ingredient, preventive spray, inoculation one day after treatment, evaluated 7 days after inoculation
Pyricularia oryzae = test: whole plant or invertebrate; format: in vivo; conditions: 144 h, read-out: % efficacy
Botrytis cinerea = test: Example B: in vivo preventive test on Botrytis cinerea (grey mould); conditions: 500 ppm, preventive spray on gherkin plants, contamination after 24 hours, grading 4 to 5 days after contamination vs control plants
Procedure: In Vivo Preventive Test on Botrytis Cinerea (Grey Mould)
The active ingredients tested are prepared by homogenization in a mixture of acetone/tween/DMSO and then diluted with water to obtain the desired active material concentration.
Gherkin plants (“Vert petit de Paris” variety), sown in starter cups on a 50/50 peat soil-pozzolana substrate and grown at 24° C., are treated at the Z11 cotyledon stage by spraying with the active ingredient prepared as described above. Plants, used as controls, are treated with the mixture of acetone/tween/DMSO/water not containing the active material.
After 24 hours, the plants are contaminated by spraying the cotyledons with an aqueous suspension of cryopreserved Botrytis cinerea spores (50 000 spores per ml). The spores are suspended in a nutrient solution composed of 10 g/L of PDB, 50 g/L of D-Fructose, 2 g/L of NH4NO3 and 1 g/L of KH2PO4. The contaminated gherkin plants are incubated at 17° C. and at 90% relative humidity.
Grading (% of efficacy) is carried out 4 to 5 days after the contamination, in comparison with the control plants.
as §3

Uromyces appendiculatus = test: Example C: in vivo preventive test on Uromyces appendiculatus (bean rust); conditions: 500 ppm, preventive spray on bean plants, contamination after 24 hours, grading 11 days after contamination vs control plants
Procedure: In Vivo Preventive Test on Uromyces appendiculatus (Bean Rust)
as §1
Bean plants (“Saxa” variety), sown in starter cups on a 50/50 peat soil-pozzolana substrate and grown at 24° C., are treated at the 2-leaf stage (9 cm height) by spraying with the active ingredient prepared as described above. Plants, used as controls, are treated with the mixture of acetone/tween/DMSO/water not containing the active material.
as §2, with “of Uromyces appendiculatus” for “of Puccinia recondita”, “spores (150” for “spores (100”, “from” for “from an”, “infected plants” for “infected plant”, “contaminated bean” for “contaminated wheat”
Grading (% of efficacy) is carried out 11 days after the contamination, in comparison with the control plants.
as §3

SMILES	pest or weed control at 500 ppm (Phytophthora infestans [1])	% efficacy (Puccinia recondita)	pest or weed control at 10 ppm (Plasmopara viticola)	chromatographic logP [2]	Eff. % (Phytophthora infestans [3])	pest or weed control at 500 ppm (Pyricularia oryzae)	% efficacy (Botrytis cinerea)	% efficacy (Uromyces appendiculatus)
Cn1oc(=O)nc1C(=NOCc1cccc(NC(=O)OCc2ccccc2)n1)c1ccccc1 [Example 17]	100%	83%	82%	3.41				
CCCCCCNc1cccc(CON=C(c2ccccc2)c2nc(=O)on2C)n1 [Example 5]			96%	2.2	95%			
CCCC(C)C(=O)Nc1cccc(CON=C(c2ccccc2)c2nc(=O)on2C)n1 (stereo not drawn) [Example 18]	100%	78%		3.19				
C#CCOC(=O)Nc1cccc(CON=C(c2cccc(F)c2)c2nc(=O)o[nH]2)n1 [Example 46]	100%			2.69		83%		
Cn1oc(=O)nc1C(=NOCc1cccc(NCCc2ccccc2)n1)c1ccccc1 [Example 7]			96%	2.23	95%			
C#CCCOC(=O)Nc1cccc(CO/N=C(/c2ccccc2)c2nc(=O)on2C)n1 [Example 1, but-3-yn-1-yl {6-[({[(Z)-(2-methyl-5-oxo-2,5-dihydro-1,2,4-oxadiazol-3-yl)(phenyl)methylene]amino}oxy)methyl]pyridin-2-yl}carbamate]			99%	2.71	98%			
CC(C)CC(=O)Nc1cccc(CON=C(c2ccccc2)c2nc(=O)on2C)n1 [Example 19]	100%	89%		2.82				
C#CCCOC(=O)Nc1cccc(CON=C(c2cccc(F)c2)c2nc(=O)o[nH]2)n1 [Example 49]	93%			2.8		83%		
Cn1oc(=O)nc1C(=NOCc1cccc(NC(=O)C(C)(C)C)n1)c1ccccc1 [Example 9]	99%	71%		2.86		71%		
CCCCOCCNc1cccc(CON=C(c2ccccc2)c2nc(=O)on2C)n1 [Example 6]				2.13	95%			
Cc1cccc(C(=NOCc2cccc(NC(=O)COc3ccccc3)n2)c2nc(=O)on2C)c1 [Example 55]	100%			3.39		83%	85%	
Cn1oc(=O)nc1/C(=N\OCc1cccc(NC(=O)OC(C)(C)C)n1)c1ccccc1 [Example 2, tert-butyl {6-[({[(Z)-(2-methyl-5-oxo-2,5-dihydro-1,2,4-oxadiazol-3-yl)(phenyl)methylene]amino}oxy)methyl]pyridin-2-yl}carbamate]			100%	3.31	100%			
COc1cccc(C(=NOCc2cccc(NC(=O)C(C)Oc3ccccc3)n2)c2nc(=O)o[nH]2)c1 (stereo not drawn) [Example 44]	100%			3.39		83%		
Cn1oc(=O)nc1C(=NOCc1cccc(NC(=O)c2cccc(F)c2)n1)c1ccccc1 [Example 10]	99%			3.11		79%	71%	
C#CCC(C)(C)OC(=O)Nc1cccc(CO/N=C(/c2ccccc2)c2nc(=O)on2C)n1 [Example 35, 2-methylpent-4-yn-2-yl {6-[({[(Z)-(2-methyl-5-oxo-2,5-dihydro-1,2,4-oxadiazol-3-yl)(phenyl)methylene]amino}oxy)methyl]pyridin-2-yl}carbamate]	100%		100%	3.31			90%	
CCCCOC(=O)Nc1cccc(CON=C(c2ccccc2)c2nc(=O)on2C)n1 [Example 14]	100%		94%	3.39				
CCCCC(=O)Nc1cccc(CON=C(c2cccc(OC)c2)c2nc(=O)o[nH]2)n1 [Example 54]	100%			2.96		83%		
CCCCCC(=O)Nc1cccc(CON=C(c2cccc(OC)c2)c2nc(=O)o[nH]2)n1 [Example 53]	95%			3.31		75%		
Cn1oc(=O)nc1/C(=N\OCc1cccc(NC(=O)OC(C)(C)C)n1)c1cccc(F)c1 [Example 20, tert-butyl {6-[({[(Z)-(2-methyl-5-oxo-2,5-dihydro-1,2,4-oxadiazol-3-yl)(3-fluorophenyl)methylene]amino}oxy)methyl]pyridin-2-yl}carbamate]	100%		74%	3.46		81%		
COc1cccc(C(=NOCc2cccc(NC(=O)OC(C)(C)C)n2)c2nc(=O)on2C)c1 [Example 22]		94%		3.39				
CC(C)CCOC(=O)Nc1cccc(CON=C(c2cccc(F)c2)c2nc(=O)o[nH]2)n1 [Example 52]	100%			3.83		75%		
Cn1oc(=O)nc1C(=NOCc1cccc(NCC2CCCCC2)n1)c1ccccc1 [Example 4]			94%	2.44	95%			
O=C(COc1ccccc1)Nc1cccc(CON=C(c2cccc(F)c2)c2nc(=O)o[nH]2)n1 [Example 51]	100%			3.21		83%		
COc1ccc(CC(=O)Nc2cccc(CON=C(c3ccccc3)c3nc(=O)on3C)n2)cc1 [Example 16]	100%	89%	94%	2.92				81%
O=C(CCc1ccccc1)Nc1cccc(CON=C(c2cccc(F)c2)c2nc(=O)o[nH]2)n1 [Example 47]	100%			3.29		75%		
